Entries after “also recorded” stand apart in the source; their conditions may differ.
Assays:
[1] = Urinary excretion after intravenous administration; format: in vivo, Wistar ST rats
Description: SPF Wistar ST rats (6 weeks of age, male, 180 ± 20 g of body weight) were purchased from Japan SLC Inc. (Hamamatsu, Japan). The rats were housed in an air-conditioned room at 22 ± 2°C under cycles of 12 hours dark and 12 hours light and given free access to a commercial diet and water for a week. The rats were then fasted for over 16 hours before the experiments. The present study was approved by the Animal Care and Use Committee at Kagawa University, and the rat treatment conformed to the Rules of Animal Experiments at Kagawa University. 3,4-[…] (300 mg/kg body weight; 936.51 μmol/kg) dissolved in 50% polyethylene glycol aqueous solution was administered orally via a stomach tube to the portal vein cannulated rats. Blood samples (450 μL) were then collected using a heparinized syringe attached to the cannula before administration and 5, 15, 30, 60, 120, and 240 min after administration. Urine was also collected before administration and 0 to 2 h and 2 to 4 h after administration. For intravenous administration, 3,4-[…] (10 mg/kg; 31.22 μmol/kg) was injected into the jugular vein, and blood (450 μL) was collected using a heparinized syringe before administration and 5, 15, 30, 60, 120, and 240 min after administration via the jugular vein cannula. The blood (450 μL) collected was immediately cooled on ice and centrifuged at 15,000 rpm for 5 min at 4°C to obtain over 200 μL plasma. Urine was also collected before administration and 0 to 2 h and 2 to 4 h after administration. Bile was collected via the bile duct cannula before administration and 0 to 2 h and 2 to 4 h after intravenous administration. The collected plasma, urine, and bile were immediately stored in an ice box until further analyses. HT (oral administration: 100 mg/kg; 648.66 μmol/kg, intravenous administration: 10 mg/kg; 64.87 μmol/kg) and Ole (oral administration: 300 mg/kg; 555.02 μmol/kg, intravenous administration: 10 mg/kg; 18.50 μmol/kg) were investigated using the same method as described above. Metabolites were deconjugated by using β-glucuronidase (500 U) and sulfatase (50 U) in 50 μL 625 mM MOPS (pH 6.8), which was added to 200 μL of plasma, urine, or bile. The mixture was incubated for 45 min at 37°C and subjected to extraction using QuEChERS [33]. […] Shimadzu, Kyoto, Japan) equipped with a Shim-pack XR-ODS column (3.0 mm I.D. × 100 mm; Shimadzu, Kyoto, Japan) at 40°C with a mobile phase of 0.5% TFA-1% acetonitrile aqueous solution (A) and 0.5% TFA-75% acetonitrile aqueous solution (B). The elution conditions are described as follows: isocratic elution of 0% B was maintained for 4.0 min; linear gradient 0 to 4% B, 4.0-4.5 min; linear gradient 4.0-16.0% B, 4.5-16.0 min; linear gradient 16.0-100% B, 16.0-25.0 min; isocratic elution of 100% B, 25.0-26.0 min; and linear gradient 100 to 0% B, 26.0-26.1 min, with a flow rate of 0.5 mL/min. Injection volume was 50 μL. All eluted peaks were detected at 279 nm with a diode array detector (SPD-M20A; Shimadzu, Kyoto, Japan).

[2] = Recovery of 3,4-DHPEA-EDA spiked into rat plasma; format: in vitro ADME; conditions: recovery yield check
Description: After oral administration of 3,4-DHPEA-EDA, HT (27.7 AUC0→4 h-i.g./Dosei.g.), HVAOH (4.2 AUC0→4 h-i.g./Dosei.g.), and HVA (4.5 AUC0→4 h-i.g./Dosei.g.) were detected in the portal plasma. Low absorption of 3,4-DHPEA-EDA is reported in some papers. […] Plasma components such as serum albumin, serum lipoprotein, and glycoprotein may have bound 3,4-DHPEA-EDA and hindered its detection. 3,4-DHPEA-EDA as a dialdehyde form might quickly bind to proteins bearing primary amines such as globulins, albumins, and other functional proteins in blood plasma, as malondialdehyde does. […] To our knowledge, this is the first report of the formation of HVAOH from 3,4-DHPEA-EDA.

SMILES	Detection of intact 3,4-DHPEA-EDA in urine [1]	HT in urine [1]	HVA in urine [1]	HVAOH in urine [1]	Total metabolites observed in the urine [1] [%]	Recovery of 3,4-DHPEA-EDA spiked into rat plasma [2]	Detection of intact Ole and metabolites in urine ([1]; listed as Ole)
CC=C(C=O)C(CC=O)CC(=O)OCCc1ccc(O)c(O)c1 (stereo not shown) [3,4-DHPEA-EDA, 3,4-dihydroxyphenylethyl elenolate dialdehydic form]	not observed; also recorded: not detected	6.3 % of dose	2.6 % of dose	4.6 % of dose	13	could not be detected	–
C/C=C1/[C@H](O[C@@H]2O[C@H](CO)[C@@H](O)[C@H](O)[C@H]2O)OC=C(C(=O)OC)[C@H]1CC(=O)OCCc1ccc(O)c(O)c1 [Oleuropein, reference compound]	–	–	–	–	–	–	not detected at all
